The values below come from US3941763A, “PGlu-D-Met-Trp-Ser-Tyr-D-Ala-Leu-Arg-Pro-Gly-NH2 and intermediates” (American Home Products Corporation, priority 1975, dated 1976).

Non-standard residues stand in square brackets, D forms with d. Residues, ends and D or L forms follow the SMILES beside them. pGlu = O=C1CC[C@@H](C(=O)O)N1

Assay [1] relates to LRH-induced release of LH. Kind of assay: Inhibition of LRH-induced release of LH in vivo in rats. Also on record: species or system Male Sprague-Dawley rats. As for the experimental part:
Male Sprague-Dawley rats are divided into two groups of at least 5 animals in each group. One group receives the test compound. The other is the control group (no test compound). At zero time, the test group receives a 100-ng dose (subcutaneous) of D--Met^2 --D--Ala^6 --LRH in 0.2 ml. of physiological saline, while the control group receives a 0.2 ml. dose of physiological saline alone. At 20 minutes, blood samples are removed by cardiac puncture, and LH concentration is determined by double-antibody radioimmunoassay. At 45 minutes, the zero-time dose is repeated for each group of animals. At 50 minutes, the animals in each group are given a 200-ng dose (subcutaneous) of LRH in 0.2 ml. of physiological saline. A second blood sample is removed by cardiac puncture at 70 minutes and LH concentration is determined.

In assay [2] the test system is rat pituitary tissue cultures. Put plainly: Inhibition of LRH-induced release of LH in vitro in rat pituitary tissue cultures. Type of assay: cell-based. As for the experimental part: LH concentration is determined by double-antibody radioimmunoassay.

`CSCC[C@@H](NC(=O)[C@@H]1CCC(=O)N1)C(=O)N[C@@H](Cc1c[nH]c2ccccc12)C(=O)N[C@@H](CO)C(=O)N[C@@H](Cc1ccc(O)cc1)C(=O)N[C@H](C)C(=O)N[C@@H](CC(C)C)C(=O)N[C@@H](CCCNC(=N)N)C(=O)N1CCC[C@H]1C(=O)NCC(=O)O` [D--Met^2 --D--Ala^6 --LRH, L-Pyroglutamyl-D-methionyl-L-tryptophyl-L-seryl-L-tyrosyl-D-alanyl-L-leucyl-L-arginyl-L-prolyl-glycine] ([pGlu][dM]WSY[dA]LRPG-OH): the “LH Plasma Conc.” value in assay [1] (time 20 minutes, before LRH administration, 100 ng s.c. test compound at zero time) is 10 ± 4 ng/mL; in assay [1] (time 70 minutes, after LRH administration (200 ng s.c. at 50 min), 100 ng s.c. test compound at 0 and 45 min), 25 ± 5 ng/mL. The LH concentration in assay [2] (LRH 5 ng/ml + D-Met2-D-Ala6-LRH 10 ng/ml, double-antibody radioimmunoassay) came to 308 ± 2 ng/mL; in assay [2] (LRH 5 ng/ml + D-Met2-D-Ala6-LRH 100 ng/ml, double-antibody radioimmunoassay), 143 ± 2 ng/mL; in assay [2] (LRH 5 ng/ml + D-Met2-D-Ala6-LRH 1000 ng/ml, double-antibody radioimmunoassay) it was 92 ± 2 ng/mL.

For the compound `CC(C)C[C@H](NC(=O)CNC(=O)[C@H](Cc1ccc(O)cc1)NC(=O)[C@H](CO)NC(=O)[C@H](Cc1c[nH]c2ccccc12)NC(=O)[C@H](Cc1c[nH]cn1)NC(=O)[C@@H]1CCC(=O)N1)C(=O)N[C@@H](CCCNC(=N)N)C(=O)N1CCC[C@H]1C(=O)NCC(N)=O` [LRH, L--pGlu--His--Trp--Ser--Tyr--Gly--Leu--Arg--Pro--Gly--NH2, reference compound], the LH concentration in assay [2] (LRH 5 ng/ml alone, no test compound) is 282 ± 11 ng/mL.
